According to ChEMBL document CHEMBL1201862, “PubChem BioAssay data set” (2004):
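Cells were grown in 96-well plates and exposed to each compound for 48 hours at five concentrations; endpoints were interpolated linearly between bracketing concentrations, or set to the highest concentration if not reached. GI50 is the concentration that inhibits growth by half.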 Active and inactive are the calls of the source. No stated cut-off is given here; in the data, active = GI50 up to about 1.1 µM and inactive = higher.

Columns and labels:
Assay in all cases: inhibition of tumour cell growth, NCI panel, 48 h
ACHN = tested on: ACHN
RXF 393 = tested on: RXF 393
NCI/ADR-RES = tested on: NCI/ADR-RES
A549 = tested on: A549
KM12 = tested on: KM12
SK-MEL-2 = tested on: SK-MEL-2
K562 = tested on: K562
MOLT-4 = tested on: MOLT-4
DU-145 = tested on: DU-145
UACC-257 = tested on: UACC-257
CCRF-CEM = tested on: CCRF-CEM
OVCAR-5 = tested on: OVCAR-5
SK-MEL-28 = tested on: SK-MEL-28
PC-3 = tested on: PC-3
A498 = tested on: A498
SF-539 = tested on: SF-539
HOP-92 = tested on: HOP-92
MCF7 = tested on: MCF7
TK-10 = tested on: TK-10
SK-OV-3 = tested on: SK-OV-3
MDA-MB-231 = tested on: MDA-MB-231
LOX IMVI = tested on: LOX IMVI
U-251 = tested on: U-251
HCT-15 = tested on: HCT-15
UO-31 = tested on: UO-31
MDA-MB-435 = tested on: MDA-MB-435
MDA-N = tested on: MDA-N
T47D = tested on: T47D
786-0 = tested on: 786-0
NCI-H522 = tested on: NCI-H522
HCT-116 = tested on: HCT-116
COLO 205 = tested on: COLO 205
SK-MEL-5 = tested on: SK-MEL-5
M14 = tested on: M14
SF-295 = tested on: SF-295
HCC 2998 = tested on: HCC 2998
SR = tested on: SR
HL-60 = tested on: HL-60
NCI-H460 = tested on: NCI-H460
SN12C = tested on: SN12C
Hs-578T = tested on: Hs-578T
UACC-62 = tested on: UACC-62
NCI-H23 = tested on: NCI-H23
EKVX = tested on: EKVX
SNB-19 = tested on: SNB-19
CAKI-1 = tested on: CAKI-1
HOP-62 = tested on: HOP-62
Malme-3M = tested on: Malme-3M
OVCAR-8 = tested on: OVCAR-8
BT-549 = tested on: BT-549
OVCAR-3 = tested on: OVCAR-3
SW-620 = tested on: SW-620
SF-268 = tested on: SF-268
HT-29 = tested on: HT-29
IGROV-1 = tested on: IGROV-1
RPMI-8226 = tested on: RPMI-8226
OVCAR-4 = tested on: OVCAR-4
SNB-75 = tested on: SNB-75
NCI-H226 = tested on: NCI-H226

SMILES: O=C1/C(=C\c2cccc(Oc3ccccc3)c2)S(=O)(=O)C(c2ccccc2)N1Cc1ccccc1 (stereo not given)
- GI50 (ACHN): 23 µM (inactive)
- GI50 (RXF 393): 27 µM (inactive)
- GI50 (NCI/ADR-RES): 19.4 µM (inactive)
- GI50 (A549): 49.2 µM (inactive)
- GI50 (KM12): 23.1 µM (inactive)
- GI50 (SK-MEL-2): 16.3 µM (inactive)
- GI50 (K562): 26 µM (inactive)
- GI50 (MOLT-4): 0.83 µM (active)
- GI50 (DU-145): 33 µM (inactive)
- GI50 (UACC-257): 22.9 µM (inactive)
- GI50 (CCRF-CEM): 24.5 µM (inactive)
- GI50 (OVCAR-5): 57 µM (inactive)
- GI50 (SK-MEL-28): 29.8 µM (inactive)
- GI50 (PC-3): 24.7 µM (inactive)
- GI50 (A498): 19.3 µM (inactive)
- GI50 (SF-539): 36.4 µM (inactive)
- GI50 (HOP-92): 19.3 µM (inactive)
- GI50 (MCF7): 39.1 µM (inactive)
- GI50 (TK-10): 33.6 µM (inactive)
- GI50 (SK-OV-3): > 100 µM (inactive)
- GI50 (MDA-MB-231): 25.6 µM (inactive)
- GI50 (LOX IMVI): 25.1 µM (inactive)
- GI50 (U-251): 33.7 µM (inactive)
- GI50 (HCT-15): 15.6 µM
- GI50 (UO-31): 18.7 µM (inactive)
- GI50 (MDA-MB-435): 32.3 µM (inactive)
- GI50 (MDA-N): 29.6 µM (inactive)
- GI50 (T47D): 32.8 µM (inactive)
- GI50 (786-0): 19.6 µM (inactive)
- GI50 (NCI-H522): 13.9 µM (inactive)
- GI50 (HCT-116): 31 µM (inactive)
- GI50 (COLO 205): 27 µM (inactive)
- GI50 (SK-MEL-5): 18.5 µM (inactive)
- GI50 (M14): 27.4 µM (inactive)
- GI50 (SF-295): 55.8 µM (inactive)
- GI50 (HCC 2998): 28.7 µM (inactive)
- GI50 (SR): 14.9 µM (inactive)
- GI50 (HL-60): 11.7 µM (inactive)
- GI50 (NCI-H460): 15.1 µM (inactive)
- GI50 (SN12C): 26.6 µM (inactive)
- GI50 (Hs-578T): 13.6 µM (inactive)
- GI50 (UACC-62): 19.1 µM (inactive)
- GI50 (NCI-H23): 28 µM (inactive)
- GI50 (EKVX): 25.8 µM (inactive)
- GI50 (SNB-19): 21.4 µM (inactive)
- GI50 (CAKI-1): 26.6 µM (inactive)
- GI50 (HOP-62): 26.5 µM (inactive)
- GI50 (Malme-3M): 18.4 µM (inactive)
- GI50 (OVCAR-8): 17.8 µM (inactive)
- GI50 (BT-549): 29 µM (inactive)
- GI50 (OVCAR-3): 13.8 µM (inactive)
- GI50 (SW-620): 40.4 µM (inactive)

SMILES: CCN1CCC(O)(c2ccc(Oc3ccccc3)cc2)C(C(=O)c2ccc(Oc3ccccc3)cc2)C1 (stereo not given)
- GI50 (ACHN): 15.5 µM (inactive)
- GI50 (RXF 393): 22.2 µM (inactive)
- GI50 (SF-268): 16.3 µM (inactive)
- GI50 (NCI/ADR-RES): 16.2 µM (inactive)
- GI50 (A549): 13.5 µM (inactive)
- GI50 (KM12): 4.85 µM (inactive)
- GI50 (SK-MEL-2): 15.1 µM (inactive)
- GI50 (K562): 13.7 µM (inactive)
- GI50 (HT-29): 6.98 µM (inactive)
- GI50 (MOLT-4): 13 µM (inactive)
- GI50 (DU-145): 14.3 µM (inactive)
- GI50 (UACC-257): 12.7 µM (inactive)
- GI50 (CCRF-CEM): 5.81 µM (inactive)
- GI50 (OVCAR-5): 15.4 µM (inactive)
- GI50 (SK-MEL-28): 13.6 µM (inactive)
- GI50 (PC-3): 13 µM (inactive)
- GI50 (A498): 14 µM (inactive)
- GI50 (SF-539): 8.45 µM (inactive)
- GI50 (HOP-92): 8.87 µM (inactive)
- GI50 (MCF7): 3.63 µM (inactive)
- GI50 (TK-10): 13.7 µM (inactive)
- GI50 (MDA-MB-231): 14.6 µM (inactive)
- GI50 (LOX IMVI): 3.84 µM (inactive)
- GI50 (U-251): 11.6 µM (inactive)
- GI50 (HCT-15): 12.2 µM
- GI50 (UO-31): 7.94 µM (inactive)
- GI50 (MDA-MB-435): 12.9 µM (inactive)
- GI50 (MDA-N): 13.8 µM (inactive)
- GI50 (T47D): 11.6 µM (inactive)
- GI50 (786-0): 5.5 µM (inactive)
- GI50 (NCI-H522): 19.6 µM (inactive)
- GI50 (IGROV-1): 15.4 µM (inactive)
- GI50 (HCT-116): 9.27 µM (inactive)
- GI50 (COLO 205): 13.6 µM (inactive)
- GI50 (SK-MEL-5): 12.5 µM (inactive)
- GI50 (M14): 11.6 µM (inactive)
- GI50 (SF-295): 14.2 µM (inactive)
- GI50 (HCC 2998): 6.62 µM (inactive)
- GI50 (SR): 5.74 µM (inactive)
- GI50 (HL-60): 3.75 µM (inactive)
- GI50 (NCI-H460): 3.85 µM (inactive)
- GI50 (SN12C): 15.3 µM (inactive)
- GI50 (Hs-578T): 23.7 µM (inactive)
- GI50 (UACC-62): 13.2 µM (inactive)
- GI50 (NCI-H23): 13.4 µM (inactive)
- GI50 (EKVX): 16 µM (inactive)
- GI50 (SNB-19): 14.6 µM (inactive)
- GI50 (RPMI-8226): 2.46 µM (inactive)
- GI50 (OVCAR-4): 10.6 µM (inactive)
- GI50 (CAKI-1): 16.4 µM (inactive)
- GI50 (HOP-62): 11.9 µM (inactive)
- GI50 (Malme-3M): 17.1 µM (inactive)
- GI50 (OVCAR-8): 17.1 µM (inactive)
- GI50 (BT-549): 10.5 µM (inactive)
- GI50 (OVCAR-3): 14.8 µM (inactive)
- GI50 (SW-620): 12.1 µM (inactive)
- GI50 (SNB-75): 14.5 µM (inactive)

SMILES: COc1ccc(C2=C(N)c3c(OC)cccc3C2=O)cc1
- GI50 (NCI-H226): > 100 µM (inactive)
- GI50 (ACHN): > 10 µM (inactive)
- GI50 (RXF 393): 9.66 µM (inactive)
- GI50 (SF-268): 37.8 µM (inactive)
- GI50 (NCI/ADR-RES): > 100 µM (inactive)
- GI50 (KM12): > 100 µM (inactive)
- GI50 (SK-MEL-2): > 100 µM (inactive)
- GI50 (K562): > 100 µM (inactive)
- GI50 (HT-29): > 100 µM (inactive)
- GI50 (MOLT-4): > 100 µM (inactive)
- GI50 (DU-145): > 100 µM (inactive)
- GI50 (UACC-257): > 10 µM (inactive)
- GI50 (CCRF-CEM): > 100 µM (inactive)
- GI50 (OVCAR-5): > 100 µM (inactive)
- GI50 (SK-MEL-28): > 100 µM (inactive)
- GI50 (PC-3): > 100 µM (inactive)
- GI50 (A498): > 100 µM (inactive)
- GI50 (SF-539): 15 µM (inactive)
- GI50 (HOP-92): > 10 µM (inactive)
- GI50 (MCF7): 60.5 µM (inactive)
- GI50 (TK-10): > 10 µM (inactive)
- GI50 (SK-OV-3): > 100 µM (inactive)
- GI50 (MDA-MB-231): 96.6 µM (inactive)
- GI50 (LOX IMVI): 99.5 µM (inactive)
- GI50 (U-251): 64.9 µM (inactive)
- GI50 (HCT-15): > 100 µM
- GI50 (UO-31): > 100 µM (inactive)
- GI50 (MDA-MB-435): > 100 µM (inactive)
- GI50 (MDA-N): > 100 µM (inactive)
- GI50 (T47D): > 100 µM (inactive)
- GI50 (786-0): 85.1 µM (inactive)
- GI50 (IGROV-1): 60.3 µM (inactive)
- GI50 (HCT-116): > 100 µM (inactive)
- GI50 (COLO 205): > 100 µM (inactive)
- GI50 (M14): 97.5 µM (inactive)
- GI50 (SF-295): 86.1 µM (inactive)
- GI50 (HCC 2998): > 100 µM (inactive)
- GI50 (SR): > 100 µM (inactive)
- GI50 (HL-60): > 100 µM (inactive)
- GI50 (NCI-H460): > 100 µM (inactive)
- GI50 (SN12C): > 100 µM (inactive)
- GI50 (Hs-578T): 61.4 µM (inactive)
- GI50 (UACC-62): > 100 µM (inactive)
- GI50 (NCI-H23): > 100 µM (inactive)
- GI50 (EKVX): > 100 µM (inactive)
- GI50 (SNB-19): > 100 µM (inactive)
- GI50 (RPMI-8226): > 100 µM (inactive)
- GI50 (OVCAR-4): > 100 µM (inactive)
- GI50 (CAKI-1): > 100 µM (inactive)
- GI50 (HOP-62): 22.5 µM (inactive)
- GI50 (Malme-3M): > 100 µM (inactive)
- GI50 (OVCAR-8): 62.2 µM (inactive)
- GI50 (BT-549): 48.6 µM (inactive)
- GI50 (OVCAR-3): > 100 µM (inactive)
- GI50 (SW-620): > 100 µM (inactive)
- GI50 (SNB-75): > 100 µM (inactive)
